Results reported in US12286442B2, “Methods and materials for increasing transcription factor eb polypeptide levels” (University of Pittsburgh—Of the Commonwealth System of …, priority 2019, dated 2025).

What was measured:
TFEB = test: High content screen measuring TFEB nuclear accumulation (TFEB nuclear/cytosol ratio) in BEAS-2B cells stably expressing TFEB-EGFP; type: cell-based, human; conditions: 18 hours incubation
Procedure, shortened: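 Readout: lowest compound concentration giving a 25% rise in nuclear/cytosol TFEB-GFP ratio, from DAPI-masked nuclear and mask-expanded cytosolic signals. Cells (BEAS-2B, TFEB-EGFP stable, ~2300–2500/well) rested 8 hours, then treated 18 hours with compound serial dilutions in 2% FBS medium before PFA fixation and DAPI staining.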

BEAS-2B cells = test: Toxicity: compound concentration needed to induce greater than 50 percent of cell loss; type: cell-based, human; conditions: 18 hours incubation
Procedure, shortened: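 Reported value is the concentration giving greater than 50 percent cell loss, grouped into bins (≥25 μM; between 1 and 25 μM; ≤1 μM as "+++"). Measured by high-content imaging of DAPI-stained BEAS-2B TFEB-EGFP cells fixed after 18 h compound exposure.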

## Oc1ccc(-c2nc(Nc3cccc(F)c3)c3ccccc3n2)cc1 [Compound 65]
TFEB
  efficacy (minimal compound concentration needed to increase TFEB nuclear/cytosol ratio by 25%): + (“+” equals >25 μM)
BEAS-2B cells
  toxicity (compound concentration needed to induce greater than 50 percent of cell loss): + (cell loss of greater than 50 percent at a concentration that equals or is greater than 25 μM was represented as)

## Cc1nc2ccc(Nc3nc(-c4ccncc4)nc4ccccc34)cc2s1 [Compound 192]
TFEB
  efficacy (minimal compound concentration needed to increase TFEB nuclear/cytosol ratio by 25%): +++ (“+++” equals ≤1 μM)
BEAS-2B cells
  toxicity (compound concentration needed to induce greater than 50 percent of cell loss): + (cell loss of greater than 50 percent at a concentration that equals or is greater than 25 μM was represented as)

## CCc1cc(C)cc(Nc2nc(-c3ccncc3)nc3ccccc23)c1 [Compound 22]
TFEB
  efficacy (minimal compound concentration needed to increase TFEB nuclear/cytosol ratio by 25%): + (“+” equals >25 μM)
BEAS-2B cells
  toxicity (compound concentration needed to induce greater than 50 percent of cell loss): + (cell loss of greater than 50 percent at a concentration that equals or is greater than 25 μM was represented as)

## Fc1c(-c2ccncc2)nc(Nc2ccc3nc(C4CC4)sc3c2)c2cccnc12 [Compound 332]
TFEB
  efficacy (minimal compound concentration needed to increase TFEB nuclear/cytosol ratio by 25%): +++ (“+++” equals ≤1 μM)
BEAS-2B cells
  toxicity (compound concentration needed to induce greater than 50 percent of cell loss): + (cell loss of greater than 50 percent at a concentration that equals or is greater than 25 μM was represented as)

## O=C(Cn1c(=O)n(-c2ccccc2)c(=O)c2ccccc21)Nc1cccc(Cl)c1 [Compound 227]
TFEB
  efficacy (minimal compound concentration needed to increase TFEB nuclear/cytosol ratio by 25%): + (“+” equals >25 μM)
BEAS-2B cells
  toxicity (compound concentration needed to induce greater than 50 percent of cell loss): + (cell loss of greater than 50 percent at a concentration that equals or is greater than 25 μM was represented as)

## Cc1ccc2nc(-c3ccncc3)nc(Nc3ccc4nc(C(C)C)sc4c3)c2c1 [Compound 154]
TFEB
  efficacy (minimal compound concentration needed to increase TFEB nuclear/cytosol ratio by 25%): +++ (“+++” equals ≤1 μM)
BEAS-2B cells
  toxicity (compound concentration needed to induce greater than 50 percent of cell loss): + (cell loss of greater than 50 percent at a concentration that equals or is greater than 25 μM was represented as)

## Cc1nc2ccc(Nc3nc(-c4ccncc4)nc4ccncc34)cc2s1 [Compound 118]
TFEB
  efficacy (minimal compound concentration needed to increase TFEB nuclear/cytosol ratio by 25%): ++ (“++” equals between ≤25 μM and >1 μM)
BEAS-2B cells
  toxicity (compound concentration needed to induce greater than 50 percent of cell loss): + (cell loss of greater than 50 percent at a concentration that equals or is greater than 25 μM was represented as)

## Cc1ccc(-c2nc(Nc3cc(F)ccc3C)c3ccccc3n2)cc1 [Compound 195]
TFEB
  efficacy (minimal compound concentration needed to increase TFEB nuclear/cytosol ratio by 25%): + (“+” equals >25 μM)
BEAS-2B cells
  toxicity (compound concentration needed to induce greater than 50 percent of cell loss): + (cell loss of greater than 50 percent at a concentration that equals or is greater than 25 μM was represented as)

## CC(C)c1nc2ccc(Nc3nc(-c4ccncc4)nc4ncccc34)cc2s1 [Compound 130]
TFEB
  efficacy (minimal compound concentration needed to increase TFEB nuclear/cytosol ratio by 25%): +++ (“+++” equals ≤1 μM)
BEAS-2B cells
  toxicity (compound concentration needed to induce greater than 50 percent of cell loss): + (cell loss of greater than 50 percent at a concentration that equals or is greater than 25 μM was represented as)

## c1ccc2c(Nc3ccc4ncoc4c3)nc(-c3ccncc3)nc2c1 [Compound 142]
TFEB
  efficacy (minimal compound concentration needed to increase TFEB nuclear/cytosol ratio by 25%): +++ (“+++” equals ≤1 μM)
BEAS-2B cells
  toxicity (compound concentration needed to induce greater than 50 percent of cell loss): + (cell loss of greater than 50 percent at a concentration that equals or is greater than 25 μM was represented as)

## COc1cc(-c2nc(Nc3cc(F)ccc3C)c3ccccc3n2)cc(OC)c1OC [Compound 198]
TFEB
  efficacy (minimal compound concentration needed to increase TFEB nuclear/cytosol ratio by 25%): + (“+” equals >25 μM)
BEAS-2B cells
  toxicity (compound concentration needed to induce greater than 50 percent of cell loss): + (cell loss of greater than 50 percent at a concentration that equals or is greater than 25 μM was represented as)

## Cn1ccc2ccc(Nc3nc(-c4ccncc4)nc4ccccc34)cc21 [Compound 32]
TFEB
  efficacy (minimal compound concentration needed to increase TFEB nuclear/cytosol ratio by 25%): +++ (“+++” equals ≤1 μM)
BEAS-2B cells
  toxicity (compound concentration needed to induce greater than 50 percent of cell loss): +++ (cell loss of greater than 50 percent at a concentration that equals or is less than 1 μM was represented as “+++.”)

## Fc1ccc(Nc2nc(-c3ccncc3)nc3ccccc23)cc1F [Compound 183]
TFEB
  efficacy (minimal compound concentration needed to increase TFEB nuclear/cytosol ratio by 25%): ++ (“++” equals between ≤25 μM and >1 μM)
BEAS-2B cells
  toxicity (compound concentration needed to induce greater than 50 percent of cell loss): + (cell loss of greater than 50 percent at a concentration that equals or is greater than 25 μM was represented as)

## CCc1nc2ccc(Nc3nc(-c4ccncc4)nc4ccncc34)cc2s1 [Compound 119]
TFEB
  efficacy (minimal compound concentration needed to increase TFEB nuclear/cytosol ratio by 25%): + (“+” equals >25 μM)
BEAS-2B cells
  toxicity (compound concentration needed to induce greater than 50 percent of cell loss): + (cell loss of greater than 50 percent at a concentration that equals or is greater than 25 μM was represented as)

## Cc1nc2ccc(Nc3nc(-c4ccncc4)nc4c(F)cccc34)cc2s1 [Compound 381]
TFEB
  efficacy (minimal compound concentration needed to increase TFEB nuclear/cytosol ratio by 25%): +++ (“+++” equals ≤1 μM)
BEAS-2B cells
  toxicity (compound concentration needed to induce greater than 50 percent of cell loss): + (cell loss of greater than 50 percent at a concentration that equals or is greater than 25 μM was represented as)

## c1ccc(CCNc2nc(-c3ccncc3)nc3ccccc23)cc1 [Compound 167]
TFEB
  efficacy (minimal compound concentration needed to increase TFEB nuclear/cytosol ratio by 25%): ++ (“++” equals between ≤25 μM and >1 μM)
BEAS-2B cells
  toxicity (compound concentration needed to induce greater than 50 percent of cell loss): + (cell loss of greater than 50 percent at a concentration that equals or is greater than 25 μM was represented as)

## CCCCc1nc2ccc(Nc3nc(-c4ccncc4)nc4ncccc34)cc2o1 [Compound 365]
TFEB
  efficacy (minimal compound concentration needed to increase TFEB nuclear/cytosol ratio by 25%): +++ (“+++” equals ≤1 μM)
BEAS-2B cells
  toxicity (compound concentration needed to induce greater than 50 percent of cell loss): + (cell loss of greater than 50 percent at a concentration that equals or is greater than 25 μM was represented as)

## FC1(F)Oc2ccc(Nc3nc(-c4ccncc4)nc4ccccc34)cc2O1 [Compound 17]
TFEB
  efficacy (minimal compound concentration needed to increase TFEB nuclear/cytosol ratio by 25%): + (“+” equals >25 μM)
BEAS-2B cells
  toxicity (compound concentration needed to induce greater than 50 percent of cell loss): + (cell loss of greater than 50 percent at a concentration that equals or is greater than 25 μM was represented as)

## Fc1ccc2c(Nc3ccc4[nH]ccc4c3)nc(-c3ccncc3)nc2c1 [Compound 112]
TFEB
  efficacy (minimal compound concentration needed to increase TFEB nuclear/cytosol ratio by 25%): +++ (“+++” equals ≤1 μM)
BEAS-2B cells
  toxicity (compound concentration needed to induce greater than 50 percent of cell loss): + (cell loss of greater than 50 percent at a concentration that equals or is greater than 25 μM was represented as)

## c1ccc2c(Nc3ccc4cc[nH]c4c3)nc(-c3ccncc3)nc2c1 [Compound 25]
TFEB
  efficacy (minimal compound concentration needed to increase TFEB nuclear/cytosol ratio by 25%): +++ (“+++” equals ≤1 μM)
BEAS-2B cells
  toxicity (compound concentration needed to induce greater than 50 percent of cell loss): ++ (cell loss of greater than 50 percent at a concentration less than 25 μM and greater than 1 μM was represented as)

## c1cnc2cc(-c3ccncc3)nc(Nc3ccc4[nH]ccc4c3)c2c1 [Compound 242]
TFEB
  efficacy (minimal compound concentration needed to increase TFEB nuclear/cytosol ratio by 25%): +++ (“+++” equals ≤1 μM)
BEAS-2B cells
  toxicity (compound concentration needed to induce greater than 50 percent of cell loss): + (cell loss of greater than 50 percent at a concentration that equals or is greater than 25 μM was represented as)

## c1ccc2c(Nc3ccc4[nH]ncc4c3)nc(C3CCNCC3)nc2c1 [Compound 76]
TFEB
  efficacy (minimal compound concentration needed to increase TFEB nuclear/cytosol ratio by 25%): + (“+” equals >25 μM)
BEAS-2B cells
  toxicity (compound concentration needed to induce greater than 50 percent of cell loss): + (cell loss of greater than 50 percent at a concentration that equals or is greater than 25 μM was represented as)

## CCc1nc2ccc(Nc3nc(-c4ccncc4)nc4ncccc34)cc2s1 [Compound 129]
TFEB
  efficacy (minimal compound concentration needed to increase TFEB nuclear/cytosol ratio by 25%): +++ (“+++” equals ≤1 μM)
BEAS-2B cells
  toxicity (compound concentration needed to induce greater than 50 percent of cell loss): + (cell loss of greater than 50 percent at a concentration that equals or is greater than 25 μM was represented as)

## Cc1nc2ccc(Nc3nc(-c4ccncc4)nc4c(C)cccc34)cc2o1 [Compound 377]
TFEB
  efficacy (minimal compound concentration needed to increase TFEB nuclear/cytosol ratio by 25%): ++ (“++” equals between ≤25 μM and >1 μM)
BEAS-2B cells
  toxicity (compound concentration needed to induce greater than 50 percent of cell loss): + (cell loss of greater than 50 percent at a concentration that equals or is greater than 25 μM was represented as)

## COc1ccc(-n2c(=O)c3ccc(C(=O)NCCc4ccccc4)cc3n(Cc3cccc(F)c3)c2=O)cc1 [Compound 236]
TFEB
  efficacy (minimal compound concentration needed to increase TFEB nuclear/cytosol ratio by 25%): ++ (“++” equals between ≤25 μM and >1 μM)
BEAS-2B cells
  toxicity (compound concentration needed to induce greater than 50 percent of cell loss): + (cell loss of greater than 50 percent at a concentration that equals or is greater than 25 μM was represented as)

## CC(=O)n1ccc2cc(Nc3nc(-c4ccncc4)nc4ccccc34)ccc21 [Compound 70]
TFEB
  efficacy (minimal compound concentration needed to increase TFEB nuclear/cytosol ratio by 25%): +++ (“+++” equals ≤1 μM)
BEAS-2B cells
  toxicity (compound concentration needed to induce greater than 50 percent of cell loss): + (cell loss of greater than 50 percent at a concentration that equals or is greater than 25 μM was represented as)

## Fc1ccc(Nc2nc(-c3cccnc3)nc3ccccc23)cc1F [Compound 196]
TFEB
  efficacy (minimal compound concentration needed to increase TFEB nuclear/cytosol ratio by 25%): + (“+” equals >25 μM)
BEAS-2B cells
  toxicity (compound concentration needed to induce greater than 50 percent of cell loss): + (cell loss of greater than 50 percent at a concentration that equals or is greater than 25 μM was represented as)
